Test results reported in US12521358B2, “Method for selecting cancer patients for whom combination therapy with retinoid and cancer therapeutic agent is effective, and combination medicament with retinoid and cancer therapeutic agent” (RaQualia Pharma Inc., priority 2020, dated 2026).

Tests used:
[1] = test system: primary human pancreatic stellate cells; assay: Meflin gene (ISLR) expression by qPCR after retinoid treatment (Example 4); format: cell-based; conditions: relative expression level, control (DMSO-treated cells) = 1, retinoid 1 μM, 48 hours
Experimental: (§1) The primary human pancreatic stellate cells used are those provided by Dr. Masamune, Tohoku University. The primary mouse mesenchymal stem cells used are those purchased from Cyagen Co., Ltd. Both pancreatic stellate cells and mesenchymal stem cells are considered to be the origin of CAF. As the retinoid, the retinoid contained in SCREEN-WELL Nuclear Receptor ligand library (ENZO) is used. DMEM+10% FBS is used as a culture medium. The cells are seeded in a collagen-coated dish and cultured until they are 100% confluent, and various retinoids are added to a concentration of 1 μM. After 48 hours, cells are harvested, RNA is extracted using RNeasyPLUS KIT (QIAGEN), and cDNA is synthesized using ReverseTra Ace qPCR RT Master Mix (TOYOBO). The expression level of the meflin gene (ISLR and Islr) is measured by qPCR using the Gene expression assay (Thermo Fisher scientific).

[2] = test system: primary mouse mesenchymal stem cells; assay: Meflin gene (Islr) expression by qPCR after retinoid treatment (Example 4); format: cell-based; conditions: relative expression level, control (DMSO-treated cells) = 1, retinoid 1 μM, 48 hours
Experimental: as §1

[3] = test system: mouse pancreatic cancer cells mT5; assay: Tamibarotene and gemcitabine in mice transplanted with mT5 (Example 7); format: in vivo; conditions: tamibarotene 3.0 mg/kg oral once a day for 17 days from Day 8; gemcitabine 50 mg/kg i.p. Day 15, 18, 21; to Day 24
Experimental: C57BL/6J female mice are subcutaneously transplanted with mouse pancreatic cancer cells mT5 (1.0×10^6 cells). […] In the Gem+AM80 group, tamibarotene (3.0 mg/kg) is orally administered once a day for 17 days from Day 8. In addition, in the Gem group and the Gem+AM80 group, gemcitabine (50 mg/kg) is intraperitoneally administered once each on Day 15, Day 18 and Day 21. In the control group, DMSO is orally administered instead of tamibarotene, and saline is intraperitoneally administered instead of gemcitabine. Tumor volume is measured before start of the AM80 administration (Day 8), Day 12, Day 15, Day 18, Day 21 and Day 24.

[4] = test system: primary mouse mesenchymal stem cells; assay: Islr, Acta2, Col1a1 and Col3a1 expression by qPCR after retinoid treatment (Example 5); format: cell-based; conditions: vs control (DMSO), 48 hours after addition; for expression level of meflin gene (Islr): FIG. 27(A); for expression level of actin gene (Acta2): FIG. 27(B); for expression level of type I collagen gene (Col1a1): FIG. 27(C); for expression level of type III collagen gene (Col3a1): FIG. 27(D)
Experimental: as §1
The same method is performed as in the experiment using the primary mouse mesenchymal stem cells in Example 4. ATRA, AM80 and AM580 are used as retinoids. The expression levels of the meflin gene (Islr), actin gene (Acta2), type I collagen gene (Col1a1) and type III collagen gene (Col3a1) are measured by qPCR.

[5] = test system: mouse pancreatic cancer cells mT5; assay: AM80 alone in mice subcutaneously transplanted with mT5 (Example 6); format: in vivo
Description: Pancreatic cancer cell mT5, which was distributed by Dr. David Tuveson, Cold Spring Harbor Laboratory, is used. mT5 is a pancreatic cancer cell established from a pancreatic tumor developed in KPC mice, which is a pancreatic cancer spontaneous onset model (Organoid models of human and mouse ductal pancreatic cancer. Cell. 2015 Jan. 15; 160 (1-2)): 324-38. Doi: 10.1016/j. cell. 2014.12.021. Epub 2014 Dec. 31.).
C57BL/6J female mice are subcutaneously transplanted with mouse pancreatic cancer cells mT5 (1.0×10^6 cells). Eight days later (Day 8), AM80 is orally administered for 15 days to mice in which tumor formation was confirmed. Depending on the dose of AM80 (0.1 mg/kg/day, 0.5 mg/kg/day, 1 mg/kg/day and 3 mg/kg/day), a total of 5 groups, namely, four AM80 administration groups and a control group (DMSO administration) are set up (n=5 in each group). Body weight and tumor volume are measured before the start of the AM80 administration (Day 8), Day 11, Day 15, Day 18 and Day 22. On Day 22, mice are euthanized, tumors are removed to prepare tissue specimens, the in situ hybridization (ISH) is performed to detect the expression of the meflin gene (Islr) and the actin gene (Acta2), and then the number of positive signals is counted for each. Furthermore, a tissue specimen of the tumor is prepared, immunostaining is performed with an anti-CD31 antibody to stain CD31, which is a marker for vascular endothelial cells, and the vascular lumen area is measured.

[6] = test system: mouse pancreatic cancer cells mT5; assay: Collagen arrangement in tumor stroma by second harmonic microscope (Example 16); format: in vivo; conditions: tamibarotene 3.0 mg/kg oral once a day for 7 days from Day 8; vs control (DMSO); Day 15
Experimental: C57BL/6J female mice are subcutaneously transplanted with mouse pancreatic cancer cells mT5 (1.0×10^6 cells). Eight days later (Day 8), the mice are divided into two groups, a control group and a tamibarotene administration group (AM80 group) to ensure equal tumor volume (n=5 in each group). In the AM80 group, tamibarotene (3.0 mg/kg) is orally administered once a day for 7 days from Day 8. In the control group, DMSO is orally administered instead of tamibarotene. On Day 15, mice are euthanized, and tumors are removed to prepare tissue specimens. Eight to sixteen images are randomly selected from the tumor tissue specimen, the collagen arrangement is measured with a second harmonic microscope, and the curvature (linearity) is analyzed.

[7] = AM80 3 mg/kg/day vs control group, tumor removed Day 22

Question: With `CC1=C(/C=C/C(C)=C\C=C\C(C)=C\C(=O)O)C(C)(C)CCC1` [9-cis Retinoic acid, 9-cis-retinoic acid] as the compound, how does the “ISLR expression level (mean value)” value [1] read?
Answer: 4.894

Question: `CC1=C(/C=C/C(C)=C/C=C/C(C)=C/C(=O)O)C(C)(C)CCC1O` (stereo not shown) [4-Hydroxyretinoic acid, 4-hydroxyretinoic acid] was tested. Which “ISLR expression level (mean value)” value [1] did it give?
Answer: 3.264

Question: What about the “ISLR expression level (mean value)” value [2] of the same compound?
Answer: 1.912

Question: `Nc1ccn([C@@H]2O[C@H](CO)[C@@H](O)C2(F)F)c(=O)n1` [Gem, gemcitabine] was tested. Which “tumor growth (tumor volume)” value [3] did it give?
Answer: more significantly suppresses the tumor growth than the control group

Question: Which “ISLR expression level (mean value)” value [1] does the source give for `CC1=C(/C=C/C(C)=C/C=C/C(C)=C/C(=O)O)C(C)(C)CCC1` [ATRA, all-trans retinoic acid] here?
Answer: 217.5011

Question: And the “ISLR expression level (mean value)” value [2]?
Answer: 1.693

Question: And the “expression level of meflin gene (Islr)” value [4]?
Answer: high

Question: What about the “expression level of actin gene (Acta2)” value [4] of the same compound?
Answer: low

Question: And the “expression level of type I collagen gene (Col1a1)” value [4]?
Answer: low

Question: What about the “expression level of type III collagen gene (Col3a1)” value [4] of the same compound?
Answer: low

Question: How did the “ISLR expression level (mean value)” value [1] turn out when `C/C(=C\c1ccc(C(=O)O)cc1)c1ccc2c(c1)C(C)(C)CCC2(C)C` [TTNPB] was run?
Answer: 15.94

Question: What about the “ISLR expression level (mean value)” value [2] of the same compound?
Answer: 5.183

Question: For `COc1ccc(-c2ccc3cc(C(=O)O)ccc3c2)cc1C12CC3CC(CC(C3)C1)C2` [Adapalene, adapalene], which “ISLR expression level (mean value)” value [2] is on record?
Answer: 5.428

Question: `CC1=C(/C=C/C(C)=C/C=C/C(C)=C\C(=O)O)C(C)(C)CCC1` [13-cis Retinoic, 13-cis-retinoic acid] was tested. Which “ISLR expression level (mean value)” value [1] did it give?
Answer: 7.252

Question: With `CC(=O)OC/C=C(C)/C=C/C=C(C)/C=C/C1=C(C)CCCC1(C)C` [Retinyl acetate, retinyl acetate] as the compound, how does the “ISLR expression level (mean value)” value [1] read?
Answer: 3.29

Question: Which results are given for `CC1(C)CCC(C)(C)c2cc(NC(=O)c3ccc(C(=O)O)cc3)ccc21` [AM80, tamibarotene]?
Answer: expression level of meflin gene (Islr) [4]: high; expression level of actin gene (Acta2) [4]: low; expression level of type I collagen gene (Col1a1) [4]: low; expression level of type III collagen gene (Col3a1) [4]: low; number of dots of the Acta2 positive signal per high-magnification field (ISH) [5, 7]: significantly lower; number of dots of the Islr positive signal per high-magnification field (ISH) [5, 7]: significantly higher; vascular lumen area (anti-CD31 immunostaining) [5, 7]: significantly higher; tumor volume ([5]; AM80 0.1, 0.5, 1 and 3 mg/kg/day oral for 15 days from Day 8, vs control (DMSO), Day 8-22): does not suppress the growth; body weight ([5]; AM80 0.1-3 mg/kg/day oral for 15 days): does not affect the body weight; curvature (linearity) of collagen [6]: reducing the linearity of collagen

Question: `CC1(C)CCC(C)(C)c2cc(C(=O)Nc3ccc(C(=O)O)cc3)ccc21` [AM580] was tested. Which “ISLR expression level (mean value)” value [1] did it give?
Answer: 3625.326

Question: What about the “ISLR expression level (mean value)” value [2] of the same compound?
Answer: 5.295

Question: And the “expression level of meflin gene (Islr)” value [4]?
Answer: high

Question: What about the “expression level of actin gene (Acta2)” value [4] of the same compound?
Answer: low

Question: And the “expression level of type I collagen gene (Col1a1)” value [4]?
Answer: low

Question: What about the “expression level of type III collagen gene (Col3a1)” value [4] of the same compound?
Answer: low

Question: Which “ISLR expression level (mean value)” value [1] does the source give for `COc1cc(C)c(/C=C/C(C)=C/C=C/C(C)=C/C(=O)O)c(C)c1C` [Acitretin] here?
Answer: 47.59

Question: And the “ISLR expression level (mean value)” value [2]?
Answer: 7.659

Question: `CC(C)(c1ccc(OCC2CO2)cc1)c1ccc(OCC2CO2)cc1` (stereo not shown) [BADGE, bisphenol A diglycidyl ether] was tested. Which “ISLR expression level (mean value)” value [1] did it give?
Answer: 5089.576
